The values that follow come from ChEMBL document CHEMBL1687830, “Evaluation of ceftazidime and NXL104 in two murine models of infection due to KPC-producing Klebsiella pneumoniae” (2011).

Holding throughout (format): functional
Experiment [1] deals with Klebsiella pneumoniae. Kind of experiment: Antimicrobial activity against carbapenemases KPC-producing Klebsiella pneumoniae VA-361 infected in sc dosed CD-1 mouse in presence of 4 ug/ml NXL104 beta-lactamase inhibitor.
Experiment [2] has as its system Klebsiella pneumoniae. Kind of experiment: Antimicrobial activity against carbapenemases KPC-producing Klebsiella pneumoniae VA-406 infected in sc dosed CD-1 mouse in presence of 4 ug/ml NXL104 beta-lactamase inhibitor.
The subject of experiment [3] is Klebsiella pneumoniae. Kind of experiment: Antimicrobial activity against carbapenemases KPC-producing Klebsiella pneumoniae VA-361 infected in sc dosed CD-1 mouse in presence of 2 ug/ml NXL104 beta-lactamase inhibitor.
In experiment [4] the test system is Klebsiella pneumoniae. Description: Antimicrobial activity against carbapenemases KPC-producing Klebsiella pneumoniae VA-406 infected in sc dosed CD-1 mouse in presence of 1 ug/ml NXL104 beta-lactamase inhibitor.
In experiment [5] the test system is Klebsiella pneumoniae. Kind of experiment: Antimicrobial activity against carbapenemases KPC-producing Klebsiella pneumoniae VA-406 infected in sc dosed CD-1 mouse septicemia infection model at 4:1 compound to NXL104 beta-lactamase inhibitor ratio by acute lethal septicemia analysis. The settings on record: VA-406, sc.
The subject of experiment [6] is Klebsiella pneumoniae. Description: Antimicrobial activity against carbapenemases KPC-producing Klebsiella pneumoniae VA-361 infected in sc dosed CD-1 mouse in presence of 4 ug/ml cavulanate beta-lactamase inhibitor.
Experiment [7] deals with Klebsiella pneumoniae. Kind of experiment: Antimicrobial activity against carbapenemases KPC-producing Klebsiella pneumoniae VA-361 infected in sc dosed CD-1 mouse septicemia infection model at 2:1 compound to NXL104 beta-lactamase inhibitor ratio by acute lethal septicemia analysis. The following applies: VA-361, sc.
In experiment [8] the test system is Klebsiella pneumoniae. Kind of experiment: Antimicrobial activity against carbapenemases KPC-producing Klebsiella pneumoniae VA-406 infected in CD-1 mouse thigh infection model assessed as change in log10 CFU reduction per thigh treated 1.5 hr post infection at >=512:128 mg/kg, sc compound to NXL104 beta-lactamase inhibitor ratio after 24 hrs by acute lethal septicemia analysis (reference value: 8.67 log10CFU/thigh).

For experiment [9], the system named is Klebsiella pneumoniae. Description: Antimicrobial activity against Klebsiella pneumoniae ATCC 13883 infected in sc dosed CD-1 mouse septicemia infection model at 4:1 compound to NXL104 beta-lactamase inhibitor ratio by acute lethal septicemia analysis. The following applies: ATCC 13883, sc.
In experiment [10] the test system is Klebsiella pneumoniae. Kind of experiment: Antimicrobial activity against carbapenemases KPC-producing Klebsiella pneumoniae VA-361 infected in sc dosed CD-1 mouse in presence of 1 ug/ml NXL104 beta-lactamase inhibitor.
The subject of experiment [11] is Klebsiella pneumoniae. Kind of experiment: Antimicrobial activity against carbapenemases KPC-producing Klebsiella pneumoniae VA-361 infected in sc dosed CD-1 mouse septicemia infection model at 4:1 compound to NXL104 beta-lactamase inhibitor ratio by acute lethal septicemia analysis. The settings on record: VA-361, sc.
Experiment [12] relates to Klebsiella pneumoniae. Description: Antimicrobial activity against carbapenemases KPC-producing Klebsiella pneumoniae VA-361 infected in sc dosed CD-1 mouse septicemia infection model by acute lethal septicemia analysis. The following applies: VA-361, sc.
Experiment [13] concerns Klebsiella pneumoniae. Kind of experiment: Antimicrobial activity against carbapenemases KPC-producing Klebsiella pneumoniae VA-361 infected in CD-1 mouse thigh infection model assessed as change in log10 CFU reduction per thigh treated 1.5 hr post infection at >=512:128 mg/kg, sc compound to NXL104 beta-lactamase inhibitor ratio after 24 hrs by acute lethal septicemia analysis (reference value: 8.93 log10CFU/thigh).

Bounds are passed on as bounds.

As to `CC(C)(O/N=C(\C(=O)N[C@@H]1C(=O)N2C(C(=O)[O-])=C(C[n+]3ccccc3)CS[C@H]12)c1csc(N)n1)C(=O)O` [CEFTAZIDIME], the MIC was 0.25 µg/mL in experiment [1]; at most 0.06 µg/mL in experiment [2]; 4 µg/mL in [3]; 8 µg/mL in experiment [4]; 128 µg/mL in [6]; 8 µg/mL in experiment [10]. Also, the 50% effective dose (ED50) in experiment [5] was determined as 3.8 mg/kg; in experiment [7], 8.1 mg/kg; in experiment [9] it was 1.1 mg/kg; in experiment [11], 15.1 mg/kg; in experiment [12], 1580 mg/kg. The log10cfu in experiment [8] is given as -1.03; in experiment [13] it was -1.47.
